According to patent US20240336622A1 (The Board of Regents of The University of Texas System, priority 2021, published 2024):

These compounds were tested on UWB1 cells (assay: cells). Conditions: read-out: IC50 (μM) UWB1 cells.

Structure (SMILES) | IC50
COC(=O)C[C@H]1[C@]2(C)C3=C(C)[C@H](c4ccccc4O[Si](C)(C)C(C)(C)C)C[C@H]3O[C@@H]2[C@@H]2OC(=O)[C@]3(C)C=CC(=O)[C@@]1(C)[C@@H]23 [S-128] | 0.0908 µM
COC(=O)C[C@H]1[C@@H]2CC3=C(C)[C@H](c4ccc(O[Si](C)(C)C(C)(C)C)cc4)C[C@@H]3O[C@@H]2[C@@H]2OC(=O)[C@]3(C)C=CC(=O)[C@@]1(C)[C@@H]23 [S-119] | 0.188 µM
COC(=O)C[C@H]1[C@]2(C)C3=C(C)[C@@H](c4ccc(CO[Si](C)(C)C(C)(C)C)cc4)C[C@H]3O[C@@H]2[C@@H]2OC(=O)[C@]3(C)C=CC(=O)[C@@]1(C)[C@@H]23 [S-148] | 0.161 µM
COC(=O)C[C@H]1[C@@H]2CC3=C(C)[C@@H](c4ccc(O[Si](C)(C)C(C)(C)C)cc4)C[C@@H]3O[C@@H]2[C@@H]2OC(=O)[C@]3(C)C=CC(=O)[C@@]1(C)[C@@H]23 [S-122] | 0.0534 µM
COC(=O)C[C@H]1[C@@H]2CC3=C(C)[C@@H](c4cccc(O[Si](C)(C)C(C)(C)C)c4)C[C@@H]3O[C@@H]2[C@@H]2OC(=O)[C@]3(C)C=CC(=O)[C@@]1(C)[C@@H]23 [S-116] | 0.15 µM
CC[Si](CC)(CC)O[C@H]1C(=O)[C@H](CC(=O)OC)[C@@]2(C)C=CC(=O)[C@@]3(C)C(=O)O[C@@H]1[C@@H]32 [S-38] | > 10 µM
COC(=O)C[C@H]1[C@@H]2CC3=C(C)[C@H](c4ccc(CO[Si](C)(C)C(C)(C)C)cc4)C[C@@H]3O[C@@H]2[C@@H]2OC(=O)[C@]3(C)C=CC(=O)[C@@]1(C)[C@@H]23 [S-147] | 0.192 µM
COC(=O)C[C@H]1[C@@H]2CC3=C(C)[C@@H](c4cccc(O[Si](C)(C)C(C)(C)C)c4)C[C@H]3O[C@@H]2[C@@H]2OC(=O)[C@]3(C)C=CC(=O)[C@@]1(C)[C@@H]23 [S-115] | 0.196 µM
C=C1[C@H](O[Si](C)(C)C)[C@H](O[Si](C)(C)C)[C@@H]2[C@](C)(C(=O)C=C[C@@]2(C)C(=O)OC)[C@H]1CC(=O)OC [S-16-a] | > 10 µM

Same assay, conditions: read-out: IC50 (μM) UWB1 cells, UWB1 cell viability

Structure (SMILES) | IC50
COC(=O)C[C@H]1[C@]2(C)C3=C(C)[C@H](c4ccoc4-c4ccc(OC)nc4)C[C@H]3O[C@@H]2[C@@H]2OC(=O)[C@]3(C)C=CC(=O)[C@@]1(C)[C@@H]23 [S-43] | 0.208 µM
COC(=O)C[C@H]1[C@@H]2CC3=C(C)[C@@H](c4ccc(OC)cc4)C[C@@H]3O[C@@H]2[C@@H]2OC(=O)[C@]3(C)C=CC(=O)[C@@]1(C)[C@@H]23 [S-109] | 0.17 µM
COC(=O)C[C@H]1[C@@H]2CC3=C(C)[C@@H](c4ccc(C=O)cc4)C[C@@H]3O[C@@H]2[C@@H]2OC(=O)[C@]3(C)C=CC(=O)[C@@]1(C)[C@@H]23 [S-151] | 0.766 µM
COC(=O)C[C@H]1[C@]2(C)C3=C(C)[C@H](c4ccc(-c5cc(C(C)(C)C)cc(C(C)(C)C)c5)cc4)C[C@H]3O[C@@H]2[C@@H]2OC(=O)[C@]3(C)C=CC(=O)[C@@]1(C)[C@@H]23 [S-132] | 0.142 µM
COC(=O)C[C@H]1[C@@H]2CC3=C(C)[C@@H](c4ccc(OS(=O)(=O)c5c(C)cc(C)cc5C)cc4)C[C@@H]3O[C@@H]2[C@@H]2OC(=O)[C@]3(C)C=CC(=O)[C@@]1(C)[C@@H]23 [S-139] | 0.14 µM
COC(=O)C[C@H]1[C@@H]2CC3=C(C)[C@@H](c4ccccc4)C[C@@H]3O[C@@H]2[C@@H]2OC(=O)[C@]3(C)C=CC(=O)[C@@]1(C)[C@@H]23 [S-103] | 0.16 µM
COC(=O)C[C@H]1[C@@H]2CC3=C(C)[C@@H](c4ccc(-c5cc(C(C)(C)C)cc(C(C)(C)C)c5)cc4)C[C@H]3O[C@@H]2[C@@H]2OC(=O)[C@]3(C)C=CC(=O)[C@@]1(C)[C@@H]23 [S-136] | 0.0934 µM
C=C1[C@H](O)[C@H](O)[C@@H]2[C@](C)(C(=O)C=C[C@@]2(C)C(=O)OC)[C@H]1CC(=O)OC [S-16-b] | > 10 µM
COC(=O)C[C@H]1[C@]2(C)C3=C(C)[C@H](c4ccoc4)C[C@H]3O[C@@H]2[C@@H]2OC(=O)[C@]3(C)C=C[C@@H](O)[C@@]1(C)[C@@H]23 [S-55] | > 10 µM
COC(=O)C[C@H]1[C@@H]2CC3=C(C)[C@H](c4ccc(OC)cc4)C[C@@H]3O[C@@H]2[C@@H]2OC(=O)[C@]3(C)C=CC(=O)[C@@]1(C)[C@@H]23 [S-108] | 0.11 µM
COC(=O)C[C@H]1[C@]2(C)C3=C(C)[C@H](c4ccc(OC)cc4)C[C@H]3O[C@@H]2[C@@H]2OC(=O)[C@]3(C)C=CC(=O)[C@@]1(C)[C@@H]23 [S-107] | 0.27 µM
COC(=O)C[C@H]1[C@]2(C)C3=C(C)[C@H](c4ccc(O)cc4)C[C@H]3O[C@@H]2[C@@H]2OC(=O)[C@]3(C)C=CC(=O)[C@@]1(C)[C@@H]23 [S-123] | 0.464 µM
C=C1[C@H](O[C@H]2C=C(C)[C@H](c3ccoc3)C2)[C@@H]2OC(=O)[C@]3(C)C=CC(=O)[C@@](C)([C@@H]23)[C@H]1CC(=O)OC [S-54] | 0.265 µM
COC(=O)C[C@H]1[C@]2(C)C3=C(C)[C@H](c4ccccc4)C[C@H]3O[C@@H]2[C@@H]2OC(=O)[C@]3(C)C=CC(=O)[C@@]1(C)[C@@H]23 [S-101] | 0.3 µM
CCC(C)NC(=O)c1ccc(-c2occc2[C@@H]2C[C@H]3O[C@@H]4[C@@H]5OC(=O)[C@]6(C)C=CC(=O)[C@](C)([C@@H](CC(=O)OC)[C@]4(C)C3=C2C)[C@@H]56)cc1 (stereo partly shown) [S-53] | 0.17 µM
C=C1[C@H](O[C@H]2C=C(C)[C@H](c3ccoc3)C2)[C@@H]2OC(=O)[C@]3(C)C=CC(=O)[C@@](C)([C@@H]23)[C@H]1CC(=O)OC [S-26-1] | 0.265 µM
COC(=O)C[C@H]1[C@@H]2CC3=C(C)[C@@H](c4ccc(C(C)(C)C)cc4)C[C@@H]3O[C@@H]2[C@@H]2OC(=O)[C@]3(C)C=CC(=O)[C@@]1(C)[C@@H]23 [S-144] | 0.14 µM
COC(=O)C[C@H]1[C@]2(C)C3=C(C)[C@H](c4ccoc4-c4ccc(C=O)cc4)C[C@H]3O[C@@H]2[C@@H]2OC(=O)[C@]3(C)C=CC(=O)[C@@]1(C)[C@@H]23 [S-45] | 0.251 µM
COC(=O)C[C@H]1[C@@H]2CC3=C(C)[C@H](c4ccc(-c5cc(C(C)(C)C)cc(C(C)(C)C)c5)cc4)C[C@H]3O[C@@H]2[C@@H]2OC(=O)[C@]3(C)C=CC(=O)[C@@]1(C)[C@@H]23 [S-133] | 0.186 µM
COC(=O)C[C@H]1[C@@H]2CC3=C(C)[C@@H](c4ccc(C(=O)O)cc4)C[C@@H]3O[C@@H]2[C@@H]2OC(=O)[C@]3(C)C=CC(=O)[C@@]1(C)[C@@H]23 [S-152] | 2.88 µM
COC(=O)C[C@H]1[C@]2(C)C3=C(C)[C@H](c4ccoc4-c4ccc([N+](=O)[O-])cc4)C[C@H]3O[C@@H]2[C@@H]2OC(=O)[C@]3(C)C=CC(=O)[C@@]1(C)[C@@H]23 [S-49] | 0.194 µM
COC(=O)C[C@H]1[C@]2(C)C3=C(C)[C@@H](c4ccc(C(C)(C)C)cc4)C[C@H]3O[C@@H]2[C@@H]2OC(=O)[C@]3(C)C=CC(=O)[C@@]1(C)[C@@H]23 [S-145] | 0.157 µM
COC(=O)C[C@H]1[C@]2(C)C3=C(C)[C@H](c4ccoc4)C[C@H]3O[C@@H]2[C@@H]2OC(=O)[C@]3(C)CCC(=O)[C@@]1(C)[C@@H]23 [S-60, 2,3-dihydronimbolide] | > 10 µM
C=C1[C@H](O)[C@@H]2OC(=O)[C@]3(C)C=CC(=O)[C@@](C)([C@@H]23)[C@H]1CC(=O)OC [S-16] | > 10 µM
COC(=O)C[C@H]1[C@]2(C)C3=C(C)[C@H](c4ccoc4-c4ccc(OC)cc4C)C[C@H]3O[C@@H]2[C@@H]2OC(=O)[C@]3(C)C=CC(=O)[C@@]1(C)[C@@H]23 [S-48] | 0.212 µM
